Reference: patent US9079896B2, “Urotensin II receptor antagonists” (Janssen Pharmaceutica NV, priority 2008, dated 2015)
Blank lines part the entries; values can stand above or below the compound they belong to.

Assays:
[1] = molecular target: T1, rat GPR14 (U-II receptor) (Rattus norvegicus, UniProt P49684); assay: Rat UII Calcium Mobilization FLIPR Assay; format: cell-based; conditions: antagonist activity after 5 min incubation vs agonist (Ac)-CFWK(2-NaI)C-NH2 at 1 nM; CHO cells transfected with rat GPR14
T1 construct: expressed in transfected cells
T1 sequence (P49684 1-386): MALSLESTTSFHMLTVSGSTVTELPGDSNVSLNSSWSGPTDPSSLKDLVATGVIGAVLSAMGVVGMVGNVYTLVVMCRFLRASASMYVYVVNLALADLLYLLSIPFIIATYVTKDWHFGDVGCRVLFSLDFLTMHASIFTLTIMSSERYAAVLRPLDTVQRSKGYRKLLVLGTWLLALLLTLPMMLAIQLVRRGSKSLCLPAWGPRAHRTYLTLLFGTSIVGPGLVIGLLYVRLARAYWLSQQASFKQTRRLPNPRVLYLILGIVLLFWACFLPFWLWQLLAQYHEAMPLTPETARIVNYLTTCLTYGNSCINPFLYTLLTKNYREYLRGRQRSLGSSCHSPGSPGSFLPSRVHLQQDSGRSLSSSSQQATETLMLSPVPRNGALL
Excerpt: A calcium mobilization assay based on a Fluorescence Imaging Plate
Res. Commun. 1995, 209, 752-759. A. Marchese, M. Heiber, T. Nguyen, H. H. Heng, V. R. Saldivia, R. Cheng, P. M. Murphy, L. C. Tsui, X. Shi, P. Gregor, Genomics 1995, 29, 335-344.).
To derive these cells, the complete coding sequence of rat U-II (Genbank Accession No. U32673) was amplified by nested PCR from rat heart marathon-Ready cDNA. […] The PCR products were cloned into pcDNA3 (Invitrogen) digested with EcoR I and Xba I. Clones containing rat U-II receptor were verified by complete sequencing of the U-II receptor insert to ensure a lack of PCR-introduced errors. The constructed vector was transfected into CHO cells by using lipofectamine (GIBCO BRL). CHO cells with high expression of rat U-II receptor were selected and established as stable cell lines by using G418. CHO cells were seeded at 25,000 cells per well into 96-well, black-wall, clear-bottom microtiter plates 24 h before assay. Cells in culture media (DMEM/F12 containing 15 mM HEPES, L-glutamine, pyridoxine hydrochloride; 10% fetal bovine serum; 1 mg/mL G418 sulfate; antibiotic-antimycotic; pH 7.4) were loaded with proprietary dye, from the FLIPR Calcium Assay Kit (Molecular Devices), prepared in assay buffer (Hanks Balanced Salts Solution, 20 mM HEPES, 0.1% BSA, 2.5 mM probenecid, pH 7.4), and incubated for 1 h at 37° C. […]

rU-II = molecular target: T2, rU-II (Rattus norvegicus, UniProt P49684); conditions: agonist cyclic peptide used in the assay; cited from earlier work
T2 sequence (P49684 1-386): T1 sequence (P49684 1-386)

[2] = molecular target: T1, rat GPR14 (U-II receptor); conditions: agonist cyclic peptide used in the assay; read-out: FLIPR EC50; cited from earlier work
[3] = system: isolated arterial rings of rats and humans; conditions: read-out: EC50 (concentration-dependent contraction); cited from earlier work
[4] = molecular target: T3, Human UII (6D9 human rhabdomyosarcoma cells) (Homo sapiens, UniProt Q9UKP6); assay: Human UII Calcium Mobilization Assay; format: cell-based; conditions: FLIPR TETRA, column head prints Ki (μM), read-out: Human UII Ca+ Mobilization Average IC50
T3 construct: 6D9: isolated by dilution subcloning of RMS13 cells; host or cells: 6D9 human rhabdomyosarcoma cells (subclone of RMS13)
T3 sequence (Q9UKP6 1-389): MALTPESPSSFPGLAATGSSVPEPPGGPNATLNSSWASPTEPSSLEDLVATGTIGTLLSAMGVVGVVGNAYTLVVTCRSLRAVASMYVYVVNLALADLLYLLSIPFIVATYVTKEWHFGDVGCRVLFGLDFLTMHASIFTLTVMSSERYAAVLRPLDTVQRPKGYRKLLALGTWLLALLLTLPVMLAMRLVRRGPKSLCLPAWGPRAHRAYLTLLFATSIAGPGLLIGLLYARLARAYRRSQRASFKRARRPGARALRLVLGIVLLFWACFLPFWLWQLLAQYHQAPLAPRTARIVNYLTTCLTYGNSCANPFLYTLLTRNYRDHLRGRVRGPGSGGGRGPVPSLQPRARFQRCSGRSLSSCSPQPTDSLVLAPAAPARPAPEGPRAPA
Experimental: 25 μL of dye solution was added to the wells such that the final liquid volume before agonist/antagonist treatment was 50 μL for all assays. The cell plates were incubated at 37° C. for 45 minutes and the fluorescence intensity was measured on a Fluorometric Imaging Plate Reader (FLIPR^TETRA, Molecular Devices, Sunnyvale, Calif.).
Antagonist and agonist U-II were added at room temperature on the FLIPR^TETRA, and the fluorescence intensity before and after addition was measured over a period of 4 minutes. The dye incubation time and temperature as well as instrument setting was adjusted so the fluorescence intensity could be compared between plates on the same day. EC50 and IC50 were analyzed using GraphPad Prism 4 software (GraphPad Software Inc., San Diego, Calif.).
For assays, U-II agonist, U-II antagonist and urantide were diluted with HBSS/HEPES containing 0.01% FBS.
Test compounds were dissolved in DMSO at 10 mM concentration. The serial dilutions were carried out in HBSS/HEPES. The highest final DMSO concentration was at 0.1%.

[5] = molecular target: T4, UT receptors in Human Skeletal Muscle Myoblasts (HSMM) (Homo sapiens, UniProt Q9UKP6); conditions: read-out: Human UII Average Binding Ki; 0.150 nM (125I)-U-II, intact HSMM, 3 h, 25° C.
T4 sequence (Q9UKP6 1-389): T3 sequence (Q9UKP6 1-389)

Ki [1]: 34 nM
Compound: CCN1CCN(c2cccc3c2[C@H]2CCCC[C@H](c4ccc(OC)c(OC)c4)N2C3=O)CC1 [Compound 2, (R,R)-7-(3,4-Dimethoxy-phenyl)-1-(4-ethyl-piperazin-1-yl)-7,8,9,10,11,11a-hexahydro-azepino[2,1-a]isoindol-5-one]

Compound: (Ac)-CFWK(2-NaI)C—NH2
Ki (rU-II): 0.12 ± 0.05 nM
EC50 [2]: 0.54 ± 0.2 nM

Compound: AGTAD-cyclo(CFWKYC)-V [Goby U-II, urotensin-II isolated from the urophysis of the goby fish, a 12-mer]
EC50 [3]: < 1 nM

IC50 [4]: 0.34 µM
Ki [5]: 64 nM
Ki [1]: 6 nM
Compound: CCN1CCN(c2cccc3c2[C@H]2CCC[C@H](c4ccc(OC)c(OC)c4)N2C3=O)CC1 [Compound 1, (R,R)-4-(3,4-Dimethoxy-phenyl)-10-(4-ethyl-piperazin-1-yl)-1,3,4,10b-tetrahydro-2H-pyrido[2,1-a]isoindol-6-one]
